In patent publication US12486244B2, “Preparation of semicarbazide-sensitive amine oxidase inhibitor and use thereof” (ENNOVABIO (ZHEJIANG) PHARMACEUTICALS CO., LTD., priority 2020, dated 2025) one finds IC50 data, which are given here for two molecules.

What all share (assay type): biochemical
Assay [1] concerns the target T1, Recombinant human AOC1/DAO protein (Homo sapiens, UniProt P19801).
T1 construct: purchased R&D systems 8298-AO
T1 sequence (P19801 20-751): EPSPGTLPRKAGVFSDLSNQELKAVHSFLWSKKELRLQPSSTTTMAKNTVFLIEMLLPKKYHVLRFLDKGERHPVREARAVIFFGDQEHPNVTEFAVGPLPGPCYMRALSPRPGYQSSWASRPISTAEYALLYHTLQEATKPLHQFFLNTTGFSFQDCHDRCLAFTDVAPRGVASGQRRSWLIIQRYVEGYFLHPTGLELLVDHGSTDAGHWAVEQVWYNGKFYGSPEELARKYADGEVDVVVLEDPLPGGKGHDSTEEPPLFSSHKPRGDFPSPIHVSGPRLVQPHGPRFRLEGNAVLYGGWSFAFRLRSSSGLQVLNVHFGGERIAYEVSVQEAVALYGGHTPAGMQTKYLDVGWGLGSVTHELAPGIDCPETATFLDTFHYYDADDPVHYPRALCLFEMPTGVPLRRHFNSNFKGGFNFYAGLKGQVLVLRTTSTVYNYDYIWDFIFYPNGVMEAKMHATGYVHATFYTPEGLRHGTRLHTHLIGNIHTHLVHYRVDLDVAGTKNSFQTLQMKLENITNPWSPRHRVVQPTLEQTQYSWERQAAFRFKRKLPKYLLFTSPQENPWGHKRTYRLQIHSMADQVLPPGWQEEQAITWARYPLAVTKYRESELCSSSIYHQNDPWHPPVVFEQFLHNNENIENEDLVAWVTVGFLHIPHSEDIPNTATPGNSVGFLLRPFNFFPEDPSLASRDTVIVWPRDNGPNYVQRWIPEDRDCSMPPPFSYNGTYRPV
In words: Inhibitory activity on AOC1 (Amplex UltraRed/HRP, putrescine substrate). Particulars: compound 100 μM to 5 nM. As for the experimental part: Recombinant human AOC1/DAO protein was purchased from R&D systems (Cat: 8298-AO). Amplex UltraRed was purchased from Thermo scientific (Cat: A36006). HRP (Cat: P8250) and Putrescine (Cat: V900377) were purchased from Sigma. Enzyme reaction buffer (50 mM HEPES, 120 mM NaCl, 5 mM KCl, 2 mM CaCl2, 1.4 mM MgCl2, 0.001% Tween-20, pH7.4) was prepared. Test compound was dissolved in DMSO and serially diluted by 3-fold. The final concentration of test compound in 10 μL reaction system was 100 μM to 5 nM when AOC1 activity was detected. The content of DMSO in detection reaction system was 1%. After the DMSO solution of test compound was diluted in the enzyme reaction buffer at a volume ratio of 1:25, 10 μL of mixture was added to each well of detection plate. 4× substrate mixture (containing 400 μM Putrescine, 4U/mL HRP, 4 μM Amplex UltraRed) was prepared in the enzyme reaction buffer, 10 μL of which was added to each well. 20 μL of AOC1 protein diluted in enzyme reaction buffer was added to each well and the final concentration was 0.4 nM in 40 μL reaction system. Synergy Neo 2 was used to read the plate for detection. […] The enzyme activity was calculated based on the increased signal of each well from the 10th minute to the 30th minute. […]
(§1) Signalpositive was signal of positive control wells without test compounds added. […] IC50 value was calculated by using 4 parameters curve fitting.

Assay [2] concerns the target T2, Recombinant human MAO-A (Homo sapiens, UniProt P21397).
T2 construct: purchased Sigma M7316
T2 sequence (P21397 1-527): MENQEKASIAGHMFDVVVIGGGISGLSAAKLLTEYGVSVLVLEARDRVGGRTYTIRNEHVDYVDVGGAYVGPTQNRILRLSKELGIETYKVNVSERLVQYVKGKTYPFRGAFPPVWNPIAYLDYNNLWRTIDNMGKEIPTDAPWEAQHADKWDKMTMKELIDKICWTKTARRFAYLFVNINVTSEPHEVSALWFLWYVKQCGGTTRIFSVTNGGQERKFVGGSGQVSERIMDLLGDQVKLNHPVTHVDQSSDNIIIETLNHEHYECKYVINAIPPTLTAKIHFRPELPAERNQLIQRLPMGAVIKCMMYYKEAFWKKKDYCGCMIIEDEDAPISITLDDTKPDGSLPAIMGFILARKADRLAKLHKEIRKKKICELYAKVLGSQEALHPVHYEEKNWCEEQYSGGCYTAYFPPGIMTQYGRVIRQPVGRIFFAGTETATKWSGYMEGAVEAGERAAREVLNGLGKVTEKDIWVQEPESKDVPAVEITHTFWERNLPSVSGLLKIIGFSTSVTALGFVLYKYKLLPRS
Kind of assay: Inhibitory activity on MAO-A (MAO-Glo assay). Conditions: recombinant human MAO-A 70 nM; compound 100 μM to 5 nM. As for the experimental part: (§2) This assay was used to evaluate the in vitro inhibitory activity of the compounds against SSAO/VAP-1 of different species. Recombinant human SSAO protein, mouse SSAO protein or rat SSAO protein (provided by Eli Lilly) were used. The enzyme activity detection kit, MAO-Glo Assay kit (V1402) was purchased from Promega. Enzyme reaction buffer (50 mM HEPES, 120 mM NaCl, 5 mM KCl, 2 mM CaCl2, 1.4 mM MgCl2, 0.001% Tween-20, pH 7.4) was prepared. The test compounds were dissolved in DMSO and serially diluted by 3-fold. The final concentration of test compound in a 10 μL reaction system was 1 μM to 0.05 nM when SSAO activity was detected. The content of DMSO in the detection reaction system was 1%. After the DMSO solution of test compounds was diluted in the enzyme reaction buffer at a volume ratio of 1:25, 2.5 μL of the solution was added to each well of detection plate with two replicates for each concentration. […] The reaction solution was incubated for 20 minutes at room temperature, and the plate was read with Synergy Neo 2 for detection. […]
as §1
(§3) Recombinant human MAO-A and MAO-B protein was purchased from Sigma (M7316, M7441). […] The final concentration of test compound in 10 μL reaction system was 100 μM to 5 nM when MAO-A and MAO-B activity were detected. […]

The target in assay [3] is T3, Recombinant human MAO-B (Homo sapiens, UniProt P27338).
T3 construct: purchased Sigma M7441
T3 sequence (P27338 1-520): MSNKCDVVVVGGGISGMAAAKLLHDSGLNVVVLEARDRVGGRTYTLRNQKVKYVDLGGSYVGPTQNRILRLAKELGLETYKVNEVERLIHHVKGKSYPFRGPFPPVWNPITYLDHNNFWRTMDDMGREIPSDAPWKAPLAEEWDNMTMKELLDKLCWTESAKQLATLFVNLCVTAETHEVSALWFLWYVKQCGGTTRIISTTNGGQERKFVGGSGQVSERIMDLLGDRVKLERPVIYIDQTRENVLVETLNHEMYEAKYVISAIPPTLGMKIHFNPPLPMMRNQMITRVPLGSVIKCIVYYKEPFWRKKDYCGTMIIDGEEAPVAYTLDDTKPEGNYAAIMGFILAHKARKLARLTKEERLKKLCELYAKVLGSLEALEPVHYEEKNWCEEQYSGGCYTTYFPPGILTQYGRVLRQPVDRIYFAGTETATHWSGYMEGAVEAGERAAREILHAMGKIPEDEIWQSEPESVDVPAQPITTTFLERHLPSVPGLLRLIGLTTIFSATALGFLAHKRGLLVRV
Kind of assay: Inhibitory activity on MAO-B (MAO-Glo assay). Conditions: recombinant human MAO-B 300 nM; compound 100 μM to 5 nM. As for the experimental part: as §2, §1, §3

In assay [4] the target is T4, Recombinant human AOC2 protein (Homo sapiens, UniProt O75106).
T4 construct: Eli Lilly (provided, not purchased)
T4 sequence (O75106 1-756): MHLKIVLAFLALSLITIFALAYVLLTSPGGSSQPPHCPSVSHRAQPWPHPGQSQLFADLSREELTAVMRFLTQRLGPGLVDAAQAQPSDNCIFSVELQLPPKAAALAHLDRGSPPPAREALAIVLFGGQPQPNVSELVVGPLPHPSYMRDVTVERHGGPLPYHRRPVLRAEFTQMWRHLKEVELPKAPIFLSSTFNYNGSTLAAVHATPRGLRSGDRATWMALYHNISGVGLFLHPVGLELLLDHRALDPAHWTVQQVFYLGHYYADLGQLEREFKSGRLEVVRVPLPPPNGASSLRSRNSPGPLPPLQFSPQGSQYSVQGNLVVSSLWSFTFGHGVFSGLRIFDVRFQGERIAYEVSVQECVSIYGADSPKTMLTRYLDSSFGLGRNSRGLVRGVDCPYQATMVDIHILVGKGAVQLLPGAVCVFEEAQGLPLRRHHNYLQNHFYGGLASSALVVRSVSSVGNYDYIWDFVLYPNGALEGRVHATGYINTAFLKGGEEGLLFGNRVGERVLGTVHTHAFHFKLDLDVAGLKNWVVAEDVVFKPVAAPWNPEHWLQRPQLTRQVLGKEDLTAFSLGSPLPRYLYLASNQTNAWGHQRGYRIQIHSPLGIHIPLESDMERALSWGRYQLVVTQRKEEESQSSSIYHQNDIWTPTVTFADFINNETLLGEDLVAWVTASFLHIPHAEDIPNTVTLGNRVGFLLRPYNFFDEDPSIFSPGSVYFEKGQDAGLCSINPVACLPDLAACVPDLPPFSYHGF
Kind of assay: Inhibitory activity on AOC2 (MAO-Glo assay). Particulars: compound 100 μM to 5 nM. As for the experimental part:
as §2, with “1%.” for “1%. After the DMSO solution of test compounds was diluted in the enzyme reaction buffer at a volume ratio of 1:25, 2.5 μL of the solution was added to each well of detection plate with two replicates for each concentration.”
as §1
Recombinant human AOC2 protein (provided by Eli Lilly). […] The final concentration of test compound in 10 μL reaction system was 100 μM to 5 nM when AOC2 activity was detected, while other reaction conditions were the same as those in Biological Test Example 1. […]

The target in assay [5] is T5, Recombinant human SSAO protein (Homo sapiens, UniProt Q16853).
T5 construct: Eli Lilly (provided, not purchased)
T5 sequence (Q16853 1-763): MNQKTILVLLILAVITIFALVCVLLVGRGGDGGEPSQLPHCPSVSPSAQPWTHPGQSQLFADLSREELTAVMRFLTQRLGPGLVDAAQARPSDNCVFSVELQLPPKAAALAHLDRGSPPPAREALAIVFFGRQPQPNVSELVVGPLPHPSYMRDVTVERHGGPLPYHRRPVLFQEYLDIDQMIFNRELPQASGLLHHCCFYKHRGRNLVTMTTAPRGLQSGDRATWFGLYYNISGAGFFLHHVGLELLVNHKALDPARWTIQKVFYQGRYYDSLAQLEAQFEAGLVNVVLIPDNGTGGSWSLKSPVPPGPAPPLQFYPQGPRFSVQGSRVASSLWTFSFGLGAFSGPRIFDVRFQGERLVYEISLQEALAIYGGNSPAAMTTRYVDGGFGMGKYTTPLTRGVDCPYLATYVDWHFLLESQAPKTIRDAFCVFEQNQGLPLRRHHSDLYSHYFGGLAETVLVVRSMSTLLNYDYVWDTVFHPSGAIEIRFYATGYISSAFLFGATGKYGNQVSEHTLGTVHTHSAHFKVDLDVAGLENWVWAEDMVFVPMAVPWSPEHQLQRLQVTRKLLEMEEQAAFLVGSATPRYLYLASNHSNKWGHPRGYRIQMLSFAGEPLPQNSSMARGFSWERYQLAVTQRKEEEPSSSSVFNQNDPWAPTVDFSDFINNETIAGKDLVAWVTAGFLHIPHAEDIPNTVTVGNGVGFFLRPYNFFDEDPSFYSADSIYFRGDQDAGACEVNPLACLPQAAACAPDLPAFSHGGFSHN
Kind of assay: In vitro inhibitory activity on SSAO/VAP-1 (MAO-Glo assay). Particulars: compound 1 μM to 0.05 nM. As for the experimental part: as §2, with “concentration. 5 μL of SSAO protein diluted in the enzyme reaction buffer was added to each well, the final concentration of which was 10 nM to 80 nM in 10 μL reaction system.” for “concentration.”
as §1

SMILES strings stand for the structures. A value given as a limit tells only on which side of the number the result lay.

The term IC50 denotes the concentration that inhibits the measured activity by half. For `CC1(O)CCN(c2ncc(OC/C(=C/F)CN)cn2)CC1` [Example 1, (E)-1-(5-((2-(Aminomethyl)-3-fluoroallyl)oxy)pyrimidin-2-yl)-4-methylpiperidin-4-ol], the IC50 in assay [1] was > 10 µM; in assay [2], 10 to 100 µM; in assay [3], > 20 µM; in assay [4], > 1 µM; in assay [5] it was < 0.01 µM.
`COCC1(O)CCN(c2ncc(OC/C(=C/F)CN)cn2)CC1` [Example 2, (E)-1-(5-((2-(aminomethyl)-3-fluoroallyl)oxy)pyrimidin-2-yl)-4-(methoxymethyl)piperidin-4-ol]: the IC50 was 0.1 to 10 µM in assay [1]; > 100 µM in assay [2]; > 20 µM in assay [3]; > 1 µM in assay [4]; < 0.01 µM in assay [5].
